Assay results from EP4603105A1, “PHARMACEUTICAL COMPOSITION CONTAINING CYCLIC COMPOUND HAVING SELECTIVE KRAS INHIBITORY EFFECT AGAINST HRAS AND NRAS” (CHUGAI SEIYAKU KABUSHIKI KAISHA, priority 2022, dated 2024).
Where two headings read alike, the source gives them in different places. *1 amine or outer side, *2 acyl side, *3 side chain or, on linkers, in order; H or OH if unused. Where a SMILES comes first, the peptide text is derived from it. Bridges are numbered along the chain shown (N, C = ends). [ ]: non-standard residue; d: D form. The star is where a group is joined. hPhe(3,5-F2-4-CF3) = N[C@@H](CCc1cc(F)c(C(F)(F)F)c(F)c1)C(=O)O; hPhe(3-Cl-4-CF3) = N[C@@H](CCc1ccc(C(F)(F)F)c(Cl)c1)C(=O)O; NPrPhe(4-CF3) = CCCN[C@@H](Cc1ccc(C(F)(F)F)cc1)C(=O)O; NEtAsp = CCN([C@@H](CC(=O)[*:3])C(=O)[*:2])[*:1]; NMeGly(cPent) = CN[C@H](C(=O)O)C1CCCC1; Hyp = O=C(O)[C@@H]1C[C@@H](O)CN1; NMeD = CN[C@@H](CC(=O)O)C(=O)O; NMeL = CN[C@@H](CC(C)C)C(=O)O; αMeV = CC(C)[C@](C)(N)C(=O)O; Morpholide = C1CN(*)CCO1; NMeA = CN[C@@H](C)C(=O)O; Aze = O=C(O)[C@@H]1CCN1; Ac4c = NC1(C(=O)O)CCC1; NEtG = CCNCC(=O)O; Sar = CNCC(=O)O

Legend:
[1] = target: GDP-bound NRAS wild-type protein (Homo sapiens, UniProt P01111); test: Binding to NRAS by surface plasmon resonance (SPR), KD and KD ratio to KRAS
Procedure, shortened: (§1)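 Biotinylated GDP-bound RAS was captured at about 100–300 RU. Running buffer: HBS pH 7.4, 10 mM MgCl2, 10 µM GDP, 1 mM DTT, 0.01% Tween 20, 4% DMSO.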

HRAS wild-type protein = HRAS wild-type protein (Homo sapiens, UniProt P01112); test: Binding to HRAS by surface plasmon resonance (SPR), KD and KD ratio to KRAS
Procedure, shortened: as §1

[2] = test system: human lung cancer strain NCI-H441; assay type: cell-based
Procedure, shortened: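 Step one: dispense the test compound in serial DMSO dilutions. Step three: add the reagent and measure […].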

[3] = ratio of the KD value with respect to GDP-bound NRAS wild-type protein to the KD value with respect to KRAS
[4] = ratio of the KD value with respect to HRAS wild-type protein to the KD value with respect to KRAS
[5] = ratio of KD for GDP-bound NRAS wild-type protein to KD for KRAS
[6] = ratio of KD for HRAS wild-type protein to KD for KRAS

GDP-bound NRAS wild-type protein, sequence (P01111 whole entry): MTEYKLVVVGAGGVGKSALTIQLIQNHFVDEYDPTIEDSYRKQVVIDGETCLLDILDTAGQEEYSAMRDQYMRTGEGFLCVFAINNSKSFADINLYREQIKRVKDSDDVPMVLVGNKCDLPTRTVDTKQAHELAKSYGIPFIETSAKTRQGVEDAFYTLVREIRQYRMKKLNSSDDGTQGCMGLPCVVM
HRAS wild-type protein, sequence (P01112 whole entry): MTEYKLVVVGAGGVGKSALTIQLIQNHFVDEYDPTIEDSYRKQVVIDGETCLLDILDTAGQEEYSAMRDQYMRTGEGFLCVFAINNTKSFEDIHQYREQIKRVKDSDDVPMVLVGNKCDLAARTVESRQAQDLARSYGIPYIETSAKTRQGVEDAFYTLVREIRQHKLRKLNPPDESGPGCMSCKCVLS

SMILES | IC50 [2] [nM] | NRAS /KRAS [1, 3] | HRAS /KRAS (HRAS wild-type protein; [4]) | NRAS /KRAS [1, 5] | HRAS /KRAS (HRAS wild-type protein; [6]) | IC50 ([2]; NCI-H441 cells, 4 days, CellTiter-Glo, read-out: NCl-H441 IC50) [nM]
CCCN1C(=O)CN(C)C(=O)CN(C)C(=O)[C@H]([C@@H](C)CC)NC(=O)[C@H](CC(C)C)N(C)C(=O)C[C@@H](C(=O)N(C)C)N(C)C(=O)[C@H](C2CCCC2)N(C)C(=O)[C@](C)(C(C)C)NC(=O)[C@@H]2CCCN2C(=O)[C@H](CCc2cc(F)c(C(F)(F)F)c(F)c2)NC(=O)CN(C)C(=O)[C@@H]1Cc1ccc(C(F)(F)F)cc1 [PP0735] ([NMeL]I[Sar][Sar][NPrPhe(4-CF3)][Sar][hPhe(3,5-F2-4-CF3)]P[αMeV][NMeGly(cPent)][NMeD]-NMe2; lactam N-11) | 40.9 | B (a compound having 3 or more and less than 10 is denoted as B) | C (A compound having a KD ratio of 0.1 or more and less than 3 is denoted as C) | – | – | –
CCC[C@H]1C(=O)N[C@@H]([C@@H](C)CC)C(=O)N(C)CC(=O)N(C)[C@H]2C/C=C\CCN(C2=O)[C@@H](Cc2ccc(C(F)(F)F)cc2)C(=O)N(C)CC(=O)N[C@@H](CCc2cc(F)c(CC)c(OC)c2)C(=O)N2C[C@H](OCC)C[C@H]2C(=O)NC2(CC(C)(C)C2)C(=O)N(C)[C@@H](C2CCCC2)C(=O)N(C)[C@H](C(=O)N(C)C)CC(=O)N1C [PP2862] | – | – | – | A (a compound having 10 or more and less than 20 is denoted as A) | B (a compound having 3 or more and less than 10 is denoted as B) | 36.3
CC[C@H](C)[C@@H]1NC(=O)[C@H](CC(C)C)N(C)C(=O)C[C@@H](C(=O)N2CCCCC2)N(C)C(=O)[C@H](C2CCCC2)N(C)C(=O)C2(CCCC2)NC(=O)[C@@H]2CCCN2C(=O)[C@H](CCc2cc(F)c(C(F)(F)F)c(F)c2)NC(=O)CN(C)C(=O)[C@H](Cc2ccc(C(F)(F)F)cc2)N2CCCC[C@@H](C2=O)N(C)C(=O)CN(C)C1=O [PP0572] | 9 | B (a compound having 3 or more and less than 10 is denoted as B) | B (a compound having 3 or more and less than 10 is denoted as B) | – | – | –
CCCN1C(=O)CN(C)C(=O)CN(CC)C(=O)[C@H]([C@@H](C)CC)NC(=O)[C@H](CC(C)C)N(C)C(=O)C[C@@H](C(=O)N2CCOCC2)NC(=O)[C@H](C2CCCC2)N(C)C(=O)C2(CCC2)NC(=O)[C@@H]2C[C@@H](OCC)CN2C(=O)[C@H](CCc2ccc(C(F)(F)F)c(Cl)c2)NC(=O)CN(C)C(=O)[C@@H]1Cc1ccc(C(F)(F)F)cc1 [PP0336] ([NMeL]I[NEtG][Sar][NPrPhe(4-CF3)][Sar][hPhe(3-Cl-4-CF3)][Hyp](Et)[Ac4c][NMeGly(cPent)]D-Morpholide; lactam N-11) | 73.2 | – | – | B (a compound having 3 or more and less than 10 is denoted as B) | B (a compound having 3 or more and less than 10 is denoted as B) | –

The next lines start with results.

IC50 [2] [nM] | SMILES | NRAS /KRAS [1, 3] | HRAS /KRAS (HRAS wild-type protein; [4]) | NRAS /KRAS [1, 5] | HRAS /KRAS (HRAS wild-type protein; [6]) | IC50 ([2]; NCI-H441 cells, 4 days, CellTiter-Glo, read-out: NCl-H441 IC50) [nM]
12.5 | CCC[C@H]1C(=O)N[C@@H]([C@@H](C)CC)C(=O)N2CCC[C@H]2C(=O)N(C)[C@H]2C/C=C\CCN(C2=O)[C@@H](Cc2ccc(C(F)(F)F)cc2)C(=O)N(C)CC(=O)N[C@@H](CCc2ccc(C(F)(F)F)c(OC)c2)C(=O)N2C[C@H](OCC)C[C@H]2C(=O)N(C)C2(CCC2)C(=O)N(C)[C@@H](C(CC)CC)C(=O)N(C)[C@H](C(=O)N(C)C)CC(=O)N1C [PP2317] | A (a compound having 10 or more and less than 20 is denoted as A) | A (a compound having 10 or more and less than 20 is denoted as A) | – | – | –
16.8 | CCO[C@@H]1C[C@H]2C(=O)NC3(CC(C)(C)C3)C(=O)N(C)[C@@H](C(CC)CC)C(=O)N(C)[C@H](C(=O)N(C)C)CC(=O)N(C)[C@@H](CC3CC3)C(=O)N[C@@H]([C@@H](C)CC)C(=O)N(C)CC(=O)N(C)[C@H]3C/C=C\CCN(C3=O)[C@@H](Cc3ccc(C)cc3)C(=O)N(C)CC(=O)N[C@@H](CCc3cc(F)c(C(F)(F)F)c(F)c3)C(=O)N2C1 [PP2137] | A (a compound having 10 or more and less than 20 is denoted as A) | A (a compound having 10 or more and less than 20 is denoted as A) | – | – | –
8.6 | CCCN1C(=O)[C@@H]2CCN2C(=O)[C@H](C)N(C)C(=O)[C@H]([C@@H](C)CC)NC(=O)[C@H](CC(C)C)N(C)C(=O)C[C@@H](C(=O)N(C)C)N(CC)C(=O)[C@H](C2CCCC2)N(C)C(=O)C2(CCC2)NC(=O)[C@@H]2CCCN2C(=O)[C@H](CCc2ccc(C(F)(F)F)c(Cl)c2)NC(=O)CN(C)C(=O)[C@@H]1Cc1ccc(C(F)(F)F)cc1 [PP1957] ([NMeL]I[NMeA][Aze][NPrPhe(4-CF3)][Sar][hPhe(3-Cl-4-CF3)]P[Ac4c][NMeGly(cPent)][NEtAsp]-NMe2; lactam N-11) | C (A compound having a KD ratio of 0.1 or more and less than 3 is denoted as C) | B (a compound having 3 or more and less than 10 is denoted as B) | – | – | –
